Several values for one entry are separate records, joined by “and”; a condition that tells them apart may be missing. Equal values may be shown once.
How the values were obtained:
Type in all cases: cell-based
OAT2r [1] = biological target: T1, OAT2r (Rattus norvegicus, UniProt Q5RLM2); test: efflux of glutamate from OAT2r-expressing 293 cells (LC-MS/MS)
T1 construct: expressed in transfected cells
T1 sequence (Q5RLM2 1-535): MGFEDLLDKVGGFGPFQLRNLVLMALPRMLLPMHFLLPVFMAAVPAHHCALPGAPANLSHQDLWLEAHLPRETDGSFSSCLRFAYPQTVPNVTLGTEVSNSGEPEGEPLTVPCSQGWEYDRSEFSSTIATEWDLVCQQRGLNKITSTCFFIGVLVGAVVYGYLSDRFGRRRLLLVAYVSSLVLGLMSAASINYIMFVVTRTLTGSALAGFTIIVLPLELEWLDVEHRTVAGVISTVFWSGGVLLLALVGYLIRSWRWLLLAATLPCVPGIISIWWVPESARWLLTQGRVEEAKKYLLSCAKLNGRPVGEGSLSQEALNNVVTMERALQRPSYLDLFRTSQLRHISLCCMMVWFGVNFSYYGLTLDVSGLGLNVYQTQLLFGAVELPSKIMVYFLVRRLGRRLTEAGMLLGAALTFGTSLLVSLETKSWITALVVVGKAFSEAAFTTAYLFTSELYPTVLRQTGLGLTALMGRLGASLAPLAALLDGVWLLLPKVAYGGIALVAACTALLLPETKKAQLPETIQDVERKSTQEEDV
Procedure: To test this hypothesis, 293 cells with or without expression of OAT2r were incubated 10 min in uptake buffer; then, the glutamate content of a buffer sample was determined by LC-MS/MS.
For measurement of solute uptake, cells were grown in surface culture on 60 mm polystyrol dishes (Nunclon 150288, Nunc, Roskilde, Denmark) precoated with 0.1 g/l poly-L-ornithine in 0.15 M boric acid-NaOH, pH 8.4. Cells were used for uptake experiments at a confluence of at least 70%. Uptake was measured at 37° C. Uptake buffer contains 125 mmol/l NaCl, 25 mmol/l HEPES-NaOH pH 7.4, 5.6 mmol/l (+)glucose, 4.8 mmol/l KCl, 1.2 mmol/l KH2PO4, 1.2 mmol/l CaCl2, and 1.2 mmol/l MgSO4. In glutamate efflux experiments, uptake buffer without KH2PO4 was used to avoid MS interference. After preincubation for at least 20 minutes in 4 ml of uptake buffer, the buffer was replaced with 2 ml of substrate in uptake buffer. The total substrate concentration if not indicated otherwise was 0.1 μmol/l for radiotracer assays and 10 μmol/l for unlabeled compounds. Incubation was stopped after 1 min by rinsing the cells four times each with 4 ml ice-cold uptake buffer. Radioactivity was determined, after cell lysis with 0.1% v/v Triton X-100 in 5 mmol/l TRIS-HCl pH 7.4, by liquid scintillation counting. For LCelectrospray ionization-MS/MS analysis, cells were lysed with methanol and stored at −20° C.

OAT2r [2] = biological target: T1, OAT2r; test: trans-stimulation of efflux of 3H-orotic acid via OAT2r; settings: for trans-stimulation of efflux of 3H-orotic acid (in words): 1 mmol/l compound in uptake buffer, 1 min, preloaded cells
OAT2h = biological target: T2, OAT2h (Homo sapiens, UniProt Q9Y694); test: 1 min uptake into 293 cells expressing OAT2 from human; settings: for clearance: 1 min uptake, 0.1 μmol/l radiotracer
T2 construct: expressed in transfected cells; host or cells: 293 cells (HEK-293), pEBTetD/OAT2h, doxycycline-inducible
T2 sequence (Q9Y694 1-546 isoform Q9Y694-2): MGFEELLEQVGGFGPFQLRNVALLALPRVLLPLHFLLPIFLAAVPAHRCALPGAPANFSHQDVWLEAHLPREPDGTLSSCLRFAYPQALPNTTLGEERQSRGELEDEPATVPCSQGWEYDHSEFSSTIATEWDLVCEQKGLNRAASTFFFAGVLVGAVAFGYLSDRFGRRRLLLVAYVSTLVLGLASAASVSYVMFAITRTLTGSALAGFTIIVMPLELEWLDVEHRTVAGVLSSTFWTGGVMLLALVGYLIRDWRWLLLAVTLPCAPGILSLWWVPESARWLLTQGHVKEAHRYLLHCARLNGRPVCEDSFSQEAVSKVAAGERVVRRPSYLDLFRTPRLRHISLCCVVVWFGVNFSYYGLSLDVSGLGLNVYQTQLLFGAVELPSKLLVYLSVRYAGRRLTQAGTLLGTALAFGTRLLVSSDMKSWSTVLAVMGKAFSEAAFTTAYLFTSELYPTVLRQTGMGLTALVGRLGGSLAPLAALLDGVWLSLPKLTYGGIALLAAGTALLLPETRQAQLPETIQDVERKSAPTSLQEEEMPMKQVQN
Procedure: Cells were used for uptake experiments at a confluence of at least 70%. Uptake was measured at 37° C. […] After preincubation for at least 20 minutes in 4 ml of uptake buffer, the buffer was replaced with 2 ml of substrate in uptake buffer. The total substrate concentration if not indicated otherwise was 0.1 μmol/l for radiotracer assays and 10 μmol/l for unlabeled compounds. Incubation was stopped after 1 min by rinsing the cells four times each with 4 ml ice-cold uptake buffer. Radioactivity was determined, after cell lysis with 0.1% v/v Triton X-100 in 5 mmol/l TRIS-HCl pH 7.4, by liquid scintillation counting. For LCelectrospray ionization-MS/MS analysis, cells were lysed with methanol and stored at −20° C.
After centrifugation (1 min, 16000×g, 20° C.) of thawed lysates, 100 μl of the supernatant was mixed with either 10 μl unlabeled MPP+ iodide (0.5 ng/μl) or biphenyl-4-carboxylic acid (Sigma-Aldrich) as internal standard. […] Atmospheric pressure ionization with positive or negative electrospray was used. For quantification (scan time 150 ms), the optimal collision energy for argon-induced fragmentation in the second quadrupole was determined for each analyte. […] Linear calibration curves were constructed from at least six standards which were prepared using control cell lysates as solvent. Sample analyte content was calculated from the analyte response ratio and the slope of the calibration curve, obtained by linear regression. With LC-MS quantitation, solute content of cell lysates was determined for 4 conditions (paired dishes, incubation time 1 min): a) transporter expression on, uptake buffer; b) expression off, uptake buffer; c) expression on, substrate in uptake buffer; d) expression off, substrate in uptake buffer. Acute uptake mediated by heterologously expressed carrier was then calculated as (c−a)−(d−b). This approach takes into account endogenous solute content and non-specific uptake. Protein was measured by the BCA assay (Pierce) with bovine serum albumin as standard. The protein content of MS samples was estimated from 3 matched cell dishes.

| Compound | release of glutamate upon expression of OAT2 (in words) (OAT2r [1]; 10 min in uptake buffer, without extracellular exchange substrate) | trans-stimulation of efflux of 3H-orotic acid (in words) (OAT2r [2]) | clearance (OAT2h; sodium-free buffer) | Vmax (OAT2h; saturation of OAT2h-mediated specific uptake, 1 min, sodium-free buffer) | Km (OAT2h; saturation of uptake, sodium-free buffer, measured as uptake) | effect on efflux of glutamate (in words) (OAT2r [1]; 1 mmol/l compound in uptake buffer, 10 min) | cell content directly after washing (OAT2r [2]; 1 h, 37° C. preloading with 100 μmol/l 3H-orotic acid, OAT2r-expressing cells, n=4) | clearance (OAT2h; uptake buffer) | carrier-mediated clearance (OAT2h; initial rate 1 min, 37° C., 10 μmol/l, LC-MS/MS, uptake buffer in the expression period) |
| --- | --- | --- | --- | --- | --- | --- | --- | --- | --- |
| N[C@@H](CCC(=O)O)C(=O)O [glutamate] | markedly increased release | accelerated efflux | 70±5 μl min-1 mg protein-1 | 36±4 nmol min-1 mg protein-1 | 1100 µM |  |  |  |  |
| O=C(O)c1cc(=O)[nH]c(=O)[nH]1 [orotic acid] |  | markedly accelerated efflux |  |  |  | strongly trans-stimulated efflux of glutamate | 56±3 nmol/mg protein | 46±1 μl min-1 mg protein-1 and 46 μl min-1 mg protein-1 |  |
| C[n+]1cccc(C(=O)[O-])c1 [trigonelline] |  |  |  |  |  |  |  |  | 121±5 μl min-1 mg protein-1 |

From patent US20140090094A1, “MODULATORS OF SLC22A7” (BAYER INTELLECTUAL PROPERTY GmbH, priority 2011, published 2014)
